Patent US20220184172A1, “AMPK/CASPASE-6 AXIS CONTROLS LIVER DAMAGE IN NONALCOHOLIC STEATOHEPATITIS” (The Regents of the University of California, priority 2019, published 2022)

System: CD-HFD-fed Flox and LAKO mice
Assay: A-769662 in CD-HFD-fed Flox and LAKO mice
Type: in vivo
Details: 25 mg/kg i.p. daily for 2 weeks
Experimental: FIGS. 13A-13I. A-769662 improves liver damage through AMPK activation in hepatocytes in NASH. C57BL/6J mice were fed with CD-HFD for 8 weeks. After 6 weeks of CD-HFD feeding, mice were intraperitoneally injected with 25 mg/kg A-769662 or vehicle daily for 2 weeks along with continuous CD-HFD feeding. FIG. 13A. Schematic diagram of experimental design. FIG. 13B-13C. Body weight (FIG. 13B) and liver weight (FIG. 13C) of indicated mice. n=7. FIG. 13D. Measurement of liver triglyceride (TG) of indicated mice. n=7. FIG. 13E. Quantification of the numbers of TUNEL-positive nuclei per field in liver sections shown in (FIG. 10B (W6), 10A). n=5-7 *, P<0.05, Student's unpaired t test. FIG. 13F-13H. Flox and LAKO mice were fed with CD-HPD for 8 weeks. After 6 weeks of CD-HFD feeding, mice were intraperitoneally injected with 25 mg/kg A-769662 or vehicle daily for 2 weeks along with continuous CD-HFD feeding. FIG. 13F. Paraffin-embedded liver sections of indicated mice were stained with TUNEL and DAPI as indicated therein; in the merged image sections, the different stains correspond to the grayscale shades as indicated in the single stained images to the left. Scale bar=50 μm. FIG. 13G. FIG. 13H. Serum ALT of indicated mice. n=4-5. *, P<0.05, two-way ANOVA. FIG. 13I. Expression of Adgre1 and Ccl2 in the liver of indicated mice. n=7. Data are shown as mean±SEM. *, P<0.05, Student's unpaired t test.
FIGS. 15A-15F. AMPK phosphorylates caspase-6 and inhibits its cleavage. FIG. 15A. Caspase-6 activity was measure in the lysates from isolated primary hepatocytes treated with vehicle or 250 μM BSA-conjugated palmitic acid (PA) or 50 ng/ml TNFα for 2 hrs. Data are shown as mean±SD. *, P<0.05, Student's unpaired t test. FIG. 15B. HepG2 cells were pretreated with 40 μM A-769662 for 1 hr, and then treated with 30 μg/ml cycloheximide (CHX) and 50 ng/ml TNFα for 2 hrs. Cell lysates were subject to immunoblot (IB) analysis. FIG. 15C. […] Quantification of IB analysis in FIG. 15D. n=3. *, P<0.05, two-way ANOVA. […] Quantification of IB analysis in FIG. 5K. n=3. […]

N#Cc1c(O)c2c(-c3ccc(-c4ccccc4O)cc3)csc2[nH]c1=O [A-769662]
procaspase-6 cleavage (liver lysates) (Flox mice): decreased | procaspase-6 phosphorylation (liver lysates) (Flox mice): significantly increased | number of apoptotic cells (TUNEL) (LAKO mice): did not decrease
